Measurements taken from patent US6632975B1, “Method for the production of in vivo model of hepatocellular carcinoma without lung metastasis” (Kabushiki Kaisha Daiyu-Kai Institute of Medical Science, priority 2000, dated 2003).

Tested on: F344 Fisher rats
Assay: Production of in vivo lung metastatic hepatoma model: incidences of hepatocellular carcinoma and lung metastasis, survival (Example 1)
Design: species or system rat
Experimental: Animals used in this example were F344 Fisher rats (purchased from Charles River Japan Inc.).
Diethylnitrosoamine (hereinafter, referred to as “DEN”) and nitrosomorpholine (hereinafter, referred to as “NMOR”) were purchased from Tokyo Kasei Kogyo Co., Ltd.
DEN was diluted with physiological saline, and intraperitoneally injected in animals at a dose of 100 mg/kg body weight, or it was diluted with tap water to make the concentration of 50 ppm and administered via drinking water feeding bottle. NMOR was diluted with tap water to make the concentration of 120 ppm, and administered via a drinking water feeding bottle.
Animals were divided into four groups and treated as follows: Animals of the first group were given 50 ppm of DEN in drinking water for 16 weeks, and were sacrificed and subjected to autopsy in week 16. Animals of the second group were given 100 mg/kg body weight of DEN via intraperitoneal injection at the start of the experiment, and were sacrificed and subjected to autopsy in week 22. Animals of the third group were given 120 ppm of NMOR in drinking water for 22 weeks, and were sacrificed and subjected to autopsy in week 22. Animals of the fourth group were given 100 mg/kg body weight of DEN via intraperitoneal injection at the start of the experiment were given NMOR from the start to week 22 of the experiment, and were sacrificed and subjected to autopsy in week 22.
Liver and lung as well as other tissues were collected, fixed in formalin and stained with hematoxylin-eosin by the standard method to prepare specimens. Specimens were microscopically examined for presence of hepatocellular carcinoma in the liver and metastatic lesion in the lung to determine incidences of hepatocellular carcinoma and lung metastasis, which are shown in FIG. 1.

[1] = DEN 50 ppm in drinking water for 16 weeks, autopsy week 16
[2] = NMOR 120 ppm in drinking water for 22 weeks, autopsy week 22

Structure (SMILES) | incidence of hepatoma [1] | lung metastasis [1] | incidence of hepatoma [2] | lung metastasis (animals affected) [2]
CCN(CC)N=O [DEN, Diethylnitrosoamine] | 100% | no lung metastasis was observed |  | 
O=NN1CCOCC1 [NMOR, nitrosomorpholine] |  |  | 100% | only one animal
